IC50 data for one compound are collected here from ChEMBL document CHEMBL5705898 (Proc Natl Acad Sci U S A, 2014).

This assay concerns the target T1, Histone-lysine N-methyltransferase SETD7 (Homo sapiens, UniProt Q8WTS6).
T1 sequence (Q8WTS6 whole entry): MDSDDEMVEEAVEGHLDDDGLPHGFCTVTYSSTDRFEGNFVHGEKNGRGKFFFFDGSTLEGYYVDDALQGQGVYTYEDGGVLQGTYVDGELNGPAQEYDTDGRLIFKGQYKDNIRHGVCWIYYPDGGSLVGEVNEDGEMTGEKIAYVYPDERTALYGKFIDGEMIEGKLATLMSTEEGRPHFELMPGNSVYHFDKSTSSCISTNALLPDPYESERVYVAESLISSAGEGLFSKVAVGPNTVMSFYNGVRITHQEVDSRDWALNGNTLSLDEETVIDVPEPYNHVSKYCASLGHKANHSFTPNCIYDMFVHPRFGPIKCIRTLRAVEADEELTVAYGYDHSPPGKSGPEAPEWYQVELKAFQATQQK
Put plainly: Inhibition of wildtype full length human SETD7 (1 to 366 residues) expressed in Escherichia coli BL21 (DE3) V2R-pRARE using biotinylated H3 (1-25) peptide as substrate incubated for 1 hrs in presence of 3H-SAM by radioactivity based assay.

With `O=C([C@H](Cc1cccc(C(F)(F)F)c1)NS(=O)(=O)c1cc(F)c2c(c1)CCNC2)N1CCCC1`, the IC50 (usually the concentration at which inhibition is half-maximal) came out at 1 µM.
